pIC50: −log10 of the molar value. Where “and” joins values, the source holds several entries; their conditions need not be identical. Equal values may be shown once.
How the values were obtained:
Mouse EL = target: T1, Mouse EL (Mus musculus, UniProt Q9WVG5); experiment: Endothelial Lipase Assay, cell surface lipase activity (mouse); assay type: cell-based; details: PLA1 substrate 10 μM, fluorescence reaction rate, several values in a cell are repeat determinations
T1 construct: host or cells: not described for mouse EL
T1 sequence (Q9WVG5 21-500): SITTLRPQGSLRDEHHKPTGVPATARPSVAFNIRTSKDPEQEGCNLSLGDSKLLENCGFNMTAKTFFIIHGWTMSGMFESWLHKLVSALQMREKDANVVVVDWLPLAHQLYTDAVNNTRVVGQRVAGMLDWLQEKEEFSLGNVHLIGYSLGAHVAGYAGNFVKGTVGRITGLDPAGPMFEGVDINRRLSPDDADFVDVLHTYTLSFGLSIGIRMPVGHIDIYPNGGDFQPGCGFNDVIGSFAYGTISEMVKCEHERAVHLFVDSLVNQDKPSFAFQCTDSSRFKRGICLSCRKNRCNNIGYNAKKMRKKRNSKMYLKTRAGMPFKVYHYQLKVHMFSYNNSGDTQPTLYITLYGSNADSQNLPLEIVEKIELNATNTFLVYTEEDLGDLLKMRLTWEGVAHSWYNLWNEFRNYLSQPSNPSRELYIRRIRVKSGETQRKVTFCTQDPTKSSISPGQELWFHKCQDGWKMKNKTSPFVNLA
Experimental: (§1) Endothelial Lipase Assay (Human/Mouse)
(§2) To assay for cell surface lipase activity, cells expressing human endothelial lipase (EL) or LPL were plated in CellBIND® 384-well plates (Corning, Lowell, Mass.) in 25 μL serum free medium at a density of 2000 cells/well. After 18-24 hours incubation at 37° C., the medium was removed and replaced with 15 μL assay buffer [Hank's Buffered Saline Solution with 25 mM HEPES pH 7.2] and 15 μL PLA1 for a final concentration of 10 μM using a Multidrop reagent dispenser. Fluorescence signal was monitored for 30 min at 37° C. on a Safire II plate reader in kinetic mode (60 cycles, kinetic interval: 30 seconds) with an excitation wavelength of 490 nm and an emission wavelength of 515 nm. Linear regression of the fluorescence intensity collected from 480 to 1500 seconds was used to calculate the reaction rate (the slope) and the slopes were used to calculate IC50 values where appropriate. The amount of BODIPY-labeled product generated was calculated at the 30 min time point as determined from standard curve analysis of purified BODIPY FL C5. In all studies using the inhibitor Ebelactone B, consistent results were obtained when it was dissolved as a stock in DMSO, immediately before use.

[1] = target: T2, human endothelial lipase (EL) (Homo sapiens, UniProt Q9Y5X9); experiment: Endothelial Lipase Assay, cell surface lipase activity (human); assay type: cell-based; details: cells expressing human EL, PLA1 substrate 10 μM, fluorescence reaction rate; several values in a cell are repeat determinations
T2 construct: host or cells: cells expressing human endothelial lipase
T2 sequence (Q9Y5X9 21-500): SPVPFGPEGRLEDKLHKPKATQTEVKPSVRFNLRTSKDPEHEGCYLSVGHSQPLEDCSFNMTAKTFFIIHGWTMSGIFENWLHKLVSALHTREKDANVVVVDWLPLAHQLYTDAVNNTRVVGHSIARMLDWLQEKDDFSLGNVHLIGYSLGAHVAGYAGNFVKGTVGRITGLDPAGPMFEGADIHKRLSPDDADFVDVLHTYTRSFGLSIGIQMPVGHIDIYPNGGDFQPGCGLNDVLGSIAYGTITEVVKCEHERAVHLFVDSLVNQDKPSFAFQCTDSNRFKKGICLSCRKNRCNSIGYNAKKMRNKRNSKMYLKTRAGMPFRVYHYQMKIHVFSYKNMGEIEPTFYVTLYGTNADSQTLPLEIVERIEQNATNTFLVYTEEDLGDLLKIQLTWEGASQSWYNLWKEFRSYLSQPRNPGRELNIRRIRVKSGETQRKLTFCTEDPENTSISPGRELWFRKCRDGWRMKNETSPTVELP
Experimental: as §1, §2

pIC50 (Mouse EL) | pIC50 [1] | Structure (SMILES)
5.01 | 5.15 | O=C(CCCCCOc1ccccc1)C(=O)NCc1nnc(-c2cccc(Oc3ccccc3)c2)o1 [Compound 60]
5.56 | 5.28 | O=C(CCCCCOc1cccc(F)c1)C(=O)NCc1nnc(-c2ccc3c(c2)Oc2ccccc2O3)o1 [Compound 62]
5.21 | 5.26 | COc1cccc(OCCCCCC(=O)C(=O)NCc2nnc(-c3ccccc3)o2)c1 [Compound 63]
5.00 | 4.96 | COc1cccc(OCCCCCC(=O)C(=O)NCc2nnc(-c3cccc(Oc4ccccc4)c3)o2)c1 [Compound 64]
6.10 | 6.06 | COc1cccc(OCCCCCC(=O)C(=O)NCc2nnc(-c3ccc(Oc4ccccc4)cc3)o2)c1 [Compound 65]
6.44 | 6.59 | O=C(CCCCCCc1ccccc1)C(=O)NCc1nnc(-c2ccc(Oc3cccc(Cl)c3)cc2)o1 [Compound 66]
6.19 | 6.19 | O=C(CCCCCOc1cccc(F)c1)C(=O)NCc1nnc(-c2ccc(Oc3cccc(Cl)c3)cc2)o1 [Compound 67]
6.91 | 6.85 | O=C(CCCCCCc1ccccc1)C(=O)NCc1nnc(-c2ccc(OCc3ccccc3)cc2)o1 [Compound 68]
6.08 | 6.57 | O=C(CCCCCOc1cccc(F)c1)C(=O)NCc1nnc(-c2ccc(OCc3ccccc3)cc2)o1 [Compound 69, N-((5-(4-(benzyloxy)phenyl)-1,3,4-oxadiazol-2-yl)methyl)-7-(3-fluorophenoxy)-2-oxoheptanamide]
6.36 | 6.66 | O=C(CCCCCCc1ccccc1)C(=O)NCc1nnc(-c2ccccc2)s1 [Compound 74]
4.95 | 4.94 | CN(c1ccc(Br)cc1)c1ccc(-c2nnc(CNC(=O)C(=O)CCCCCCc3ccccc3)o2)cc1 [Compound 75]
5.71 | 5.51 | O=C(CCCCCCc1ccccc1)C(=O)NCc1nnc(-c2ccc(OCc3cccc(Cl)c3)cc2)o1 [Compound 76]
4.48 | 4.48 | O=C(CCCCCCc1ccccc1)C(=O)NCc1nnc(-c2ccc(OCc3ccc(Cl)cc3)cc2)o1 [Compound 77]
6.11 | 6.02 | Cn1ccnc1COc1ccc(-c2nnc(CNC(=O)C(=O)CCCCCCc3ccccc3)o2)cc1 [Compound 78]
6.67 | 6.22 | O=C(CCCCCCc1ccccc1)C(=O)NCc1nnc(-c2ccc(OCc3ccc(F)cc3)cc2)o1 [Compound 80]
5.08 | 4.94 | COc1ccc(COc2ccc(-c3nnc(CNC(=O)C(=O)CCCCCCc4ccccc4)o3)cc2)cc1 [Compound 81]
6.88 | 6.97 | O=C(CCCCCCc1ccccc1)C(=O)NCc1nnc(-c2ccc(OCc3cccnc3)cc2)o1 [Compound 82]
7.19 | 6.92 | COC(=O)c1cccc(COc2ccc(-c3nnc(CNC(=O)C(=O)CCCCCCc4ccccc4)o3)cc2)c1 [Compound 83]
6.70 | 6.63 | O=C(CCCCCCc1ccccc1)C(=O)NCc1nnc(-c2ccc(OCc3cccc(F)c3)cc2)o1 [Compound 84]
6.77 | 6.65 | O=C(CCCCCCc1ccccc1)C(=O)NCc1nnc(-c2ccc(OCc3ccccc3F)cc2)o1 [Compound 85]
7.14 | 6.81 | O=C(CCCCCCc1ccccc1)C(=O)NCc1nnc(-c2ccc(OCc3ccncc3)cc2)o1 [Compound 86]
6.15 | 5.84 | O=C(CCCCCCc1ccccc1)C(=O)NCc1nnc(-c2ccc(Oc3ncccn3)cc2)o1 [Compound 87]
6.71 | 6.75 | O=C(CCCCCCc1ccccc1)C(=O)NCc1nnc(-c2ccc(OCc3ccccn3)cc2)o1 [Compound 88]
6.63 | 6.25 | O=C(CCCCCCc1ccccc1)C(=O)NCc1nnc(-c2ccc(OCc3ccc4ccccc4n3)cc2)o1 [Compound 89]

pIC50 (Mouse EL) | pIC50 [1] | Structure (SMILES)
7.10 and 6.80 | 6.26 and 6.73 | O=C(CCCCCCc1ccccc1)C(=O)NCc1nnc(-c2ccc(OCc3cc(F)cc(F)c3)cc2)o1 [Compound 90]
6.04 | 6.36 | O=C(CCCCCOc1ccc(F)cc1F)C(=O)NCc1nnc(-c2ccc(Oc3ccccc3)cc2)o1 [Compound 92]
5.83 | 5.51 | O=C(CCCCCOc1c(F)cccc1F)C(=O)NCc1nnc(-c2ccc(Oc3ccccc3)cc2)o1 [Compound 93]
6.20 | 6.03 | O=C(CCCCCOc1cc(F)ccc1F)C(=O)NCc1nnc(-c2ccc(OCc3ccccc3)cc2)o1 [Compound 94]
6.25 | 5.98 | O=C(CCCCCOc1cc(F)cc(F)c1)C(=O)NCc1nnc(-c2ccc(Oc3ccccc3)cc2)o1 [Compound 95]
6.18 | 5.89 | O=C(CCCCCOc1cccc(Cl)c1)C(=O)NCc1nnc(-c2ccc(OCc3ccccc3)cc2)o1 [Compound 96]
6.11 | 5.76 | O=C(CCCCCOc1cc(F)ccc1F)C(=O)NCc1nnc(-c2ccc(Oc3ccccc3)cc2)o1 [Compound 98]
5.98 | 5.67 | O=C(CCCCCOc1ccc(F)cc1F)C(=O)NCc1nnc(-c2ccc(OCc3ccccc3)cc2)o1 [Compound 99]
6.26 | 5.88 | O=C(CCCCCOc1cc(F)cc(F)c1)C(=O)NCc1nnc(-c2ccc(OCc3ccccc3)cc2)o1 [Compound 100]
4.70 | 5.26 | O=C(CCCCCOc1c(F)cccc1F)C(=O)NCc1nnc(-c2ccc(OCc3ccccc3)cc2)o1 [Compound 101]
6.09 | 5.71 | O=C(CCCCCOc1cccc(F)c1F)C(=O)NCc1nnc(-c2ccc(Oc3ccccc3)cc2)o1 [Compound 102]
6.74 | 6.64 | O=C(CCCCCCc1ccccc1)C(=O)NCc1nnc(-c2ccc(OCn3nnc4ccccc43)cc2)o1 [Compound 104]
6.53 | 6.13 | O=C(CCCCCCc1ccccc1)C(=O)NCc1nnc(-c2ccc(Oc3ccc(F)cc3)cc2)o1 [Compound 106]
6.67 | 6.46 | O=C(CCCCCCc1ccccc1)C(=O)NCc1nnc(-c2ccc(OCc3ccncn3)cc2)o1 [Compound 107]
5.93 | 6.20 | O=C(CCCCCOc1cc(F)cc(F)c1)C(=O)NCc1nnc(-c2ccccc2)s1 [Compound 108]
6.50 | 6.30 | CN(Cc1ccccc1)c1ccc(-c2nnc(CNC(=O)C(=O)CCCCCCc3ccccc3)o2)cc1 [Compound 109]
6.46 | 6.17 | CN(Cc1ccc(F)c(F)c1)c1ccc(-c2nnc(CNC(=O)C(=O)CCCCCCc3ccccc3)o2)cc1 [Compound 110]
6.81 | 6.63 | CN(Cc1ccccn1)c1ccc(-c2nnc(CNC(=O)C(=O)CCCCCCc3ccccc3)o2)cc1 [Compound 111]
6.60 | 6.29 | CC(C)(C)OC(=O)N(Cc1ccccc1)c1ccc(-c2nnc(CNC(=O)C(=O)CCCCCCc3ccccc3)o2)cc1 [Compound 115]
6.54 | 6.49 | O=C(CCCCCCc1ccccc1)C(=O)NCc1nnc(-c2ccc(NCc3ccccc3)cc2)o1 [Compound 116]
7.30 | 7.11 | N#Cc1cccc(COc2ccc(-c3nnc(CNC(=O)C(=O)CCCCCCc4ccccc4)o3)cc2)c1 [Compound 117]
6.32 | 6.17 | O=C(CCCCCCc1ccccc1)C(=O)NCc1nnc(-c2ccc(NCc3ccc(F)c(F)c3)cc2)o1 [Compound 118]
6.04 | 6.01 | O=C(CCCCCCc1cccnc1F)C(=O)NCc1nnc(-c2ccc(Oc3ccccc3)cc2)o1 [Compound 119]
6.01 | 5.82 | O=C(CCCCCCc1cncnc1)C(=O)NCc1nnc(-c2ccc(Oc3ccccc3)cc2)o1 [Compound 120]
